Converted amounts (≈) assume the structure as drawn.
How the values were obtained:
Streptococcus pneumoniae [1] = assay: Antimicrobial activity against Streptococcus pneumoniae assessed as resistant isolates broth microdilution method; assay type: functional
Streptococcus pneumoniae [2] = assay: Antimicrobial activity against compound-susceptible Streptococcus pneumoniae by broth microdilution method
Streptococcus pneumoniae [3] = assay: Antimicrobial activity against compound-intermediate Streptococcus pneumoniae by broth microdilution method
Streptococcus pneumoniae [4] = assay: Antimicrobial activity against compound-resistant Streptococcus pneumoniae by broth microdilution method
Streptococcus pneumoniae [5] = assay: Antimicrobial activity against SXT-susceptible Streptococcus pneumoniae by broth microdilution method; assay type: functional
Streptococcus pneumoniae [6] = assay: Antimicrobial activity against penicillin-susceptible Streptococcus pneumoniae by broth microdilution method; assay type: functional
Streptococcus pneumoniae [7] = assay: Antimicrobial activity against Ciprofloxacin-susceptible Streptococcus pneumoniae by broth microdilution method; assay type: functional
Streptococcus pneumoniae [8] = assay: Antimicrobial activity against Doxycycline-susceptible Streptococcus pneumoniae by broth microdilution method; assay type: functional
[9] = Drug concentration in alveolar macrophages of patient with Streptococcus pneumoniae infections at 1.6 mg/kg, iv administered as single 60 mins infusion measured after 1 to 2 hrs; assay type: ADME, organism-based, Macrophage; set-up: dose 1.6 mg/kg, route intravenous; conditions: human, in vivo
[10] = Drug concentration in epithelial lining fluid of patient with Streptococcus pneumoniae infections at 1.6 mg/kg, iv administered as single 60 mins infusion measured after 1 to 2 hrs; assay type: ADME, organism-based; set-up: dose 1.6 mg/kg, route intravenous; conditions: human, in vivo
[11] = Drug concentration in alveolar macrophages of patient with Streptococcus pneumoniae infections at 1.6 mg/kg, iv administered as single 60 mins infusion measured after 3 to 4 hrs; assay type: ADME, organism-based, Macrophage; set-up: dose 1.6 mg/kg, route intravenous; conditions: human, in vivo
[12] = Drug concentration in epithelial lining fluid of patient with Streptococcus pneumoniae infections at 1.6 mg/kg, iv administered as single 60 mins infusion measured after 3 to 4 hrs; assay type: ADME, organism-based; set-up: dose 1.6 mg/kg, route intravenous; conditions: human, in vivo
[13] = Drug concentration in alveolar macrophages of patient with Streptococcus pneumoniae infections at 1.6 mg/kg, iv administered as single 60 mins infusion measured after 5.5 to 7 hrs; assay type: ADME, organism-based, Macrophage; set-up: dose 1.6 mg/kg, route intravenous; conditions: human, in vivo
[14] = Drug concentration in epithelial lining fluid of patient with Streptococcus pneumoniae infections at 1.6 mg/kg, iv administered as single 60 mins infusion measured after 5.5 to 7 hrs; assay type: ADME, organism-based; set-up: dose 1.6 mg/kg, route intravenous; conditions: human, in vivo
[15] = Streptococcus pneumoniae, read-out: MIC50

Compound O=C(O)c1cn(C2CC2)c2cc(N3CCNCC3)c(F)cc2c1=O [CIPROFLOXACIN] has an Activity (Streptococcus pneumoniae [1]) of 1.7%, an MIC (Streptococcus pneumoniae [2]) of at most 1 µg/mL and an MIC (Streptococcus pneumoniae [3]) of 2 µg/mL (≈ 6.04 µM). The MIC (Streptococcus pneumoniae [4]) was at least 4 µg/mL.
CC[C@H]1OC(=O)[C@H](C)[C@@H](O[C@H]2C[C@@](C)(OC)[C@@H](O)[C@H](C)O2)[C@H](C)[C@@H](O[C@@H]2O[C@H](C)C[C@H](N(C)C)[C@H]2O)[C@](C)(OC)C[C@@H](C)C(=O)[C@H](C)[C@@H](O)[C@]1(C)O [CLARITHROMYCIN] showed an Activity (Streptococcus pneumoniae [1]) of 11.8%.
C[C@H]1c2cccc(O)c2C(=O)C2=C(O)[C@]3(O)C(=O)C(C(N)=O)=C(O)[C@@H](N(C)C)[C@@H]3[C@@H](O)[C@@H]21.O [DOXYCYCLINE] gave an Activity (Streptococcus pneumoniae [1]) of 0.9%.
In the case of COc1cc(Cc2cnc(N)nc2N)c2c(c1OC)OC(C1CC1)C=C2 (stereo unspecified) [ICLAPRIM], the MIC50 (Streptococcus pneumoniae [5]) is reported as 0.06 µg/mL (≈ 0.169 µM), the MIC50 (Streptococcus pneumoniae [5]; [15]) is reported as at most 0.03 µg/mL and the MIC50 (Streptococcus pneumoniae [6]) is reported as 0.06 µg/mL (≈ 0.169 µM). For the same compound, the MIC50 (Streptococcus pneumoniae [6]; [15]) was at most 0.03 µg/mL, the MIC50 (Streptococcus pneumoniae [7]) was 0.06 µg/mL (≈ 0.169 µM) and the MIC50 (Streptococcus pneumoniae [7]; [15]) was at most 0.03 µg/mL. For the same compound, the MIC50 (Streptococcus pneumoniae [8]) was 0.06 µg/mL (≈ 0.169 µM), the MIC50 (Streptococcus pneumoniae [8]; [15]) was at most 0.03 µg/mL and the Drug uptake [9] was 24.5 µg/mL. It also gave a Drug uptake [10] of 12.61 µg/mL, a Drug uptake [11] of 7.16 µg/mL and a Drug uptake [12] of 6.38 µg/mL. The Drug uptake [13] was 5.28 µg/mL and the Drug uptake [14] was 2.66 µg/mL.
Work on CC1(C)S[C@@H]2[C@H](NC(=O)Cc3ccccc3)C(=O)N2[C@H]1C(=O)O [PENICILLIN G] yielded an Activity (Streptococcus pneumoniae [1]) of 6.8%.

— ChEMBL document CHEMBL1649130, “In vitro activity of Iclaprim against respiratory and bacteremic isolates of Streptococcus pneumoniae” (Antimicrob Agents Chemother, 2009)
